Experimental findings from ChEMBL document CHEMBL5729210, “Benzodiazepine derivatives as RSV inhibitors” (2022) are described below.

The structures appear in SMILES notation. Several values for one entry are separate records, joined by “and”; a condition that tells them apart may be missing. Equal entries are not always repeated. Some results are limits rather than exact numbers.

This assay can be described thus: RSV-A Assay: The description is Japanese.
For `O=C1Nc2ccccc2C(c2ccccc2)=NC1Nc1nnc(-c2cccnc2N2CCOCC2)o1` (stereo not given), the EC50 is less than 400 nM.
The value for `O=C1Nc2ccccc2C(c2ccccc2)=NC1Nc1nnc(-c2ccccc2N2CCCOCC2)o1` (stereo not given) was greater than 800 nM; that for `O=C1Nc2ccccc2C(c2ccccc2)=NC1Nc1nnc(-c2ccccc2)[nH]1` (stereo not given) was greater than 800 nM.
The value for `O=C1Nc2ccccc2C(c2ccccc2)=N[C@@H]1Nc1nnc(-c2ccc(F)cc2)o1` was “in the range around 600 nM”; that for `CN(C)c1cc(C(F)(F)F)cnc1-c1nnc(N[C@H]2N=C(c3ccccc3)c3ccccc3NC2=O)o1` was greater than 800 nM.
In the case of `O=C1Nc2c(F)cccc2C(c2ccccc2)=N[C@H]1Nc1nnc(-c2cccnc2N2CCOCC2)o1`, the EC50 was > 800 nM and < 400 nM.
The value for `COCCOC(=O)c1nc2ccccc2n1CCOC` was greater than 800 nM; that for `O=C1Nc2ccccc2C(c2ccccc2)=N[C@@H]1Nc1nnc(-c2ccc(C(F)(F)F)nc2N2C3CCC2COC3)o1` was greater than 800 nM.
The value for `O=C1Nc2ccccc2C(c2ccccc2)=NC1Nc1nnc(C2CCOC2)o1` (stereo not given) was greater than 800 nM; that for `COc1ccccc1-c1nc(-c2nnc(N[C@H]3N=C(c4ccccc4)c4ccccc4NC3=O)o2)c(N2CCOCC2)s1` was less than 400 nM; that for `Cc1ccc(-c2nnc(NC3N=C(c4ccccc4)c4ccccc4NC3=O)o2)o1` (stereo not given) was greater than 800 nM.
`COC(=O)c1cc(C2CC2)sc1N1CCOCC1`: the 50% effective concentration (EC50) is less than 400 nM.
`COCc1nnc(NC2N=C(c3ccccc3)c3ccccc3NC2=O)o1` (stereo not given) showed an EC50 greater than 800 nM.
The value for `Cc1ccc(-c2nnc(N[C@H]3N=C(c4ccccc4)c4ccccc4NC3=O)o2)c(N2C3CCC2COC3)n1` was less than 400 nM; that for `O=C1Nc2ccccc2C(c2ccccc2)=NC1Nc1nnc(-c2cc(F)ccc2N2CCOCC2)o1` (stereo not given) was “in the range around 600 nM”.
The value for `Cc1ccc(-c2nnc(NC3N=C(c4ccccc4)c4ccccc4NC3=O)o2)s1` (stereo not given) was greater than 800 nM.
The value for `CCOC(=O)c1nc(-c2ccc(C(F)(F)F)nc2)sc1N1CCOCC1` was less than 400 nM; that for `N#Cc1c[nH]c2cc(-c3nnc(N[C@H]4N=C(c5ccccc5)c5ccccc5NC4=O)o3)ccc12` was greater than 800 nM.
For the compound `CO[C@H]1CCN(c2ncccc2-c2nnc(NC3N=C(c4ccccc4)c4ccccc4NC3=O)o2)C1` (stereo not given in full), the EC50 is greater than 800 nM.
`O=C1Nc2ccccc2C(c2ccccc2)=NC1Nc1nc2ccccc2s1` (stereo not given) registered an EC50 greater than 800 nM.
The value for `O=C1Nc2ccccc2C(c2ccccc2)=NC1Nc1nnc(-c2cccnc2N2CCC(O)CC2)o1` (stereo not given) was greater than 800 nM; that for `Cc1cc(-c2nnc(NC3N=C(c4ccccc4)c4ccccc4NC3=O)o2)ccc1-n1cncn1` (stereo not given) was “in the range around 600 nM”; that for `COCCOc1ccc(C(=O)OC)cc1` was greater than 800 nM.
The value for `Cc1nsc(N2CCOCC2)c1-c1nnc(N[C@H]2N=C(c3ccccc3)c3ccccc3NC2=O)o1` was “in the range around 600 nM”; that for `NS(=O)(=O)c1ccc(-c2nnc(NC3N=C(c4ccccc4)c4ccccc4NC3=O)o2)cc1` (stereo not given) was “in the range around 600 nM”.
The value for `Cc1ccc2oc(NC3N=C(c4ccccc4)c4ccccc4NC3=O)nc2c1` (stereo not given) was greater than 800 nM; that for `Cn1c(N2CCOCC2)c(-c2nnc(N[C@H]3N=C(c4ccccc4)c4ccccc4NC3=O)o2)ccc1=O` was less than 400 nM.
With `Cc1cc(-c2nnc(NC3N=C(c4ccccc4)c4ccccc4NC3=O)o2)ccc1N1CCOCC1` (stereo not given), the EC50 entry was “in the range around 600 nM”.
Compound `O=C1Nc2ccccc2C(c2ccccc2)=NC1Nc1nnc(-c2cnccc2N2CCCCC2)o1` (stereo not given) showed an EC50 greater than 800 nM.
The value for `COc1ccc(CN2C(=O)C(NC(=S)NC(=O)c3ccccc3)N=C(c3ccccc3)c3ccccc32)cc1` (stereo not given) was greater than 800 nM.
Take `CCOC(=O)c1nc(-c2ccc(F)cn2)sc1N1CCOCC1`: the EC50 was less than 400 nM.
The value for `CCOC(=O)c1ncc(C(F)(F)F)cc1-c1ccncc1` was greater than 800 nM.
The value for `COC(C)(C)CNc1cc(C(F)(F)F)cnc1-c1nnc(N[C@H]2N=C(c3ccccc3)c3ccccc3NC2=O)o1` was greater than 800 nM; that for `CCOC(=O)c1ccc(F)cc1N1CCOCC1` was less than 400 nM.
The value for `O=C1Nc2ccccc2C(c2ccccc2)=NC1Nc1nnc(C2CC3(CCNCC3)C2)o1` (stereo not given) was greater than 800 nM; that for `COc1ccccc1-c1nnc(NC2N=C(c3ccccc3)c3ccccc3NC2=O)o1` (stereo not given) was greater than 800 nM; that for `O=C1Nc2ccccc2C(c2ccccc2)=NC1Nc1nnc(-c2ccc(N3CCOCC3)cc2Cl)o1` (stereo not given) was greater than 800 nM.
As for `Cc1nc2ccc(-c3nnc(NC4N=C(c5ccccc5)c5ccccc5NC4=O)o3)cc2s1` (stereo not given), the EC50 entry is “in the range around 600 nM”.
The compound `COC1CN(c2cc(C(F)(F)F)cnc2-c2nnc(N[C@H]3N=C(c4ccccc4)c4ccccc4NC3=O)o2)C1` yielded an EC50 greater than 800 nM.
The value for `O=C1Nc2ccccc2C(c2ccccc2)=NC1Nc1nnc(-c2cccnc2N2CC(F)(F)C2)o1` (stereo not given) was greater than 800 nM; that for `CCOC(=O)c1nc(C)sc1NCCOC` was less than 400 nM; that for `O=C1Nc2ccccc2C(c2ccccc2)=NC1Nc1nnc(-c2ccc(F)nc2N2CCOCC2)o1` (stereo not given) was “in the range around 600 nM and < 400 nM”.
With `CCOC(=O)c1cnn2c1N(CCOC)CCC2`, the EC50 entry was “in the range around 600 nM”.
In turn, `COC[C@H]1C[C@@H]1c1cc(C(F)(F)F)cnc1-c1nnc(N[C@H]2N=C(c3ccccc3)c3ccccc3NC2=O)o1` showed an EC50 greater than 800 nM.
The value for `O=C1Nc2ccccc2C(c2ccccc2)=NC1Nc1nnc(-c2cnco2)o1` (stereo not given) was greater than 800 nM.
`COC1CCN(c2ncccc2-c2nnc(NC3N=C(c4ccccc4)c4ccccc4NC3=O)o2)CC1` (stereo not given) had an EC50 greater than 800 nM.
Regarding `CN(c1nnc(-c2ccc(F)cc2)o1)C1N=C(c2ccccc2)c2ccccc2NC1=O` (stereo not given), the EC50 was greater than 800 nM.
The value for `O=C1Nc2ccccc2C(c2ccccc2)=N[C@@H]1Nc1nnc(-c2ncc(C(F)(F)F)cc2N2CC3CCC(C2)O3)o1` was less than 400 nM.
For the compound `O=C1Nc2ccccc2C(c2ccccc2)=NC1Nc1nnc(C2CCCC2)o1` (stereo not given), the EC50 was greater than 800 nM.
For the compound `O=C1Nc2ccccc2C(c2ccccc2)=NC1Nc1nnc(-c2ccc(F)cc2F)o1` (stereo not given), the EC50 is greater than 800 nM.
The value for `O=C1Nc2ccccc2C(c2ccccc2)=NC1Nc1nnc(-c2cccc(-n3ccnc3)c2)o1` (stereo not given) was greater than 800 nM; that for `CCOC(=O)c1nnc(NC2N=C(c3ccccc3)c3ccccc3NC2=O)o1` (stereo not given) was greater than 800 nM.
The value for `Cn1nccc1-c1nnc(NC2N=C(c3ccccc3)c3ccccc3NC2=O)o1` (stereo not given) was greater than 800 nM.
Turning to `O=C1Nc2ccccc2C(c2ccccc2)=N[C@@H]1Nc1nnc(-c2cn(-c3ccc(C(F)(F)F)cn3)nc2N2CCOCC2)o1`, the EC50 result is “in the range around 600 nM”.
The value for `O=C1Nc2ccccc2C(c2ccccc2)=N[C@@H]1Nc1nnc(-c2cn(-c3ccccn3)nc2N2CCOCC2)o1` was less than 400 nM.
The value for `O=C1Nc2ccccc2C(c2ccccc2)=NC1Nc1nnc(-c2ccc(NC3CCCCC3)cc2)o1` (stereo not given) was greater than 800 nM; that for `O=C1Nc2ccccc2C(c2ccccc2)=N[C@@H]1Nc1nnc(-c2ncc(C(F)(F)F)cc2C2CC2)o1` was greater than 800 nM.
The value for `O=C1Nc2ccccc2C(c2cccc(F)c2)=NC1Nc1nnc(-c2ccc(F)cc2)o1` (stereo not given) was “in the range around 600 nM”; that for `COC(=O)c1cc(Br)c(C2CC2)nc1Cl` was less than 400 nM; that for `O=C1Nc2ccccc2C(c2ccccc2)=NC1Nc1nnc(-c2ccc(N3CCOCC3)cn2)o1` (stereo not given) was greater than 800 nM.
